# Measurements published in patent publication US5656588A, “Wound healing formula” (Wake Forest University, priority 1994, dated 1997).
# “Also recorded” adds a separate entry of the source. Like-named read-outs stand apart in the source and are kept apart here.
# Legend:
# [1] = test system: gastric and duodenal ulcers; details: food deprived rats; cited from earlier work
# [2] = test system: wound healing; details: supplementation of the diet, animals and humans; cited from earlier work
# [3] = test system: wound healing; experiment: Wound strength (abdominal bursting strength) in animals given carnosine or histidine following surgery; type: in vivo; details: supplement to a complete diet, mammals not nutritionally deprived
# Excerpt: Pursuant to the present invention, therapeutically effective amounts of carnosine are supplemented with a complete diet. […] Previous studies in this area have advocated that the wound healing effects can be achieved with histamine or histidine. […] Table 2 illustrates comparative results between carnosine and histidine administered to animals following surgery.
compound,measurement,setting,value
N-acetyl-L-carnosine aluminum,Protection against ulcer formation (in words),[1],protects against the formation of gastric and duodenal ulcers
N=C(N)NCCC[C@H](N)C(=O)O [arginine],Effect on wound healing (in words),[2],improves wound healing
"NCCC(=O)N[C@@H](Cc1c[nH]cn1)C(=O)O [carnosine, β-alanyl-histidine]",Effect on wound healing (in words),[3],improves wound healing; also recorded: more effective in stimulating wound healing than histidine treatment
